Twelve compounds from ChEMBL document CHEMBL3992556, “5-Ethynylarylnaphthalimides as antitumor agents: Synthesis and biological evaluation” (Bioorg Med Chem, 2017) can be followed below.

One experiment relates to SK-BR-3. As to the kind of experiment: Antiproliferative activity against human SK-BR-3 cells after 48 hrs by MTT assay. Particulars: SK-BR-3, 48 h. Type of experiment: functional, cell-based.
The test system of another experiment is HL-60. As to the kind of experiment: Antiproliferative activity against human HL60 cells after 48 hrs by MTT assay. In kind it is functional, cell-based. Particulars: HL-60, 48 h. (In general: Tetrazolium assays rely on reduction of a dye to a coloured formazan, in cell work by metabolically active cells.)
For a further experiment, the system named is HEL. As to the kind of experiment: Antiproliferative activity against human HEL cells after 48 hrs by MTT assay. In kind it is functional, cell-based.
For experiment [1], the system named is Saccharomyces cerevisiae. Description: Induction of DNA damage in Saccharomyces cerevisiae FM588 expressing rad52 gene assessed as growth inhibition at 5 to 100 uM after 24 hrs. Type of experiment: functional.
Experiment [2] has as its system Saccharomyces cerevisiae. Description: Induction of DNA damage in Saccharomyces cerevisiae FM888 harboring rad52 deletion mutant assessed as growth inhibition at 5 to 100 uM after 24 hrs. Type of experiment: functional.
The target in experiment [3] is DNA topoisomerase 2-alpha (Homo sapiens) (UniProt P11388). As to the kind of experiment: Inhibition of human topoisomerase-2 alpha assessed as reduction in relaxation of supercoiled pRYG DNA at 100 uM after 30 min by agarose gel electrophoresis.
Chain of DNA topoisomerase 2-alpha (Homo sapiens) (P11388 whole entry): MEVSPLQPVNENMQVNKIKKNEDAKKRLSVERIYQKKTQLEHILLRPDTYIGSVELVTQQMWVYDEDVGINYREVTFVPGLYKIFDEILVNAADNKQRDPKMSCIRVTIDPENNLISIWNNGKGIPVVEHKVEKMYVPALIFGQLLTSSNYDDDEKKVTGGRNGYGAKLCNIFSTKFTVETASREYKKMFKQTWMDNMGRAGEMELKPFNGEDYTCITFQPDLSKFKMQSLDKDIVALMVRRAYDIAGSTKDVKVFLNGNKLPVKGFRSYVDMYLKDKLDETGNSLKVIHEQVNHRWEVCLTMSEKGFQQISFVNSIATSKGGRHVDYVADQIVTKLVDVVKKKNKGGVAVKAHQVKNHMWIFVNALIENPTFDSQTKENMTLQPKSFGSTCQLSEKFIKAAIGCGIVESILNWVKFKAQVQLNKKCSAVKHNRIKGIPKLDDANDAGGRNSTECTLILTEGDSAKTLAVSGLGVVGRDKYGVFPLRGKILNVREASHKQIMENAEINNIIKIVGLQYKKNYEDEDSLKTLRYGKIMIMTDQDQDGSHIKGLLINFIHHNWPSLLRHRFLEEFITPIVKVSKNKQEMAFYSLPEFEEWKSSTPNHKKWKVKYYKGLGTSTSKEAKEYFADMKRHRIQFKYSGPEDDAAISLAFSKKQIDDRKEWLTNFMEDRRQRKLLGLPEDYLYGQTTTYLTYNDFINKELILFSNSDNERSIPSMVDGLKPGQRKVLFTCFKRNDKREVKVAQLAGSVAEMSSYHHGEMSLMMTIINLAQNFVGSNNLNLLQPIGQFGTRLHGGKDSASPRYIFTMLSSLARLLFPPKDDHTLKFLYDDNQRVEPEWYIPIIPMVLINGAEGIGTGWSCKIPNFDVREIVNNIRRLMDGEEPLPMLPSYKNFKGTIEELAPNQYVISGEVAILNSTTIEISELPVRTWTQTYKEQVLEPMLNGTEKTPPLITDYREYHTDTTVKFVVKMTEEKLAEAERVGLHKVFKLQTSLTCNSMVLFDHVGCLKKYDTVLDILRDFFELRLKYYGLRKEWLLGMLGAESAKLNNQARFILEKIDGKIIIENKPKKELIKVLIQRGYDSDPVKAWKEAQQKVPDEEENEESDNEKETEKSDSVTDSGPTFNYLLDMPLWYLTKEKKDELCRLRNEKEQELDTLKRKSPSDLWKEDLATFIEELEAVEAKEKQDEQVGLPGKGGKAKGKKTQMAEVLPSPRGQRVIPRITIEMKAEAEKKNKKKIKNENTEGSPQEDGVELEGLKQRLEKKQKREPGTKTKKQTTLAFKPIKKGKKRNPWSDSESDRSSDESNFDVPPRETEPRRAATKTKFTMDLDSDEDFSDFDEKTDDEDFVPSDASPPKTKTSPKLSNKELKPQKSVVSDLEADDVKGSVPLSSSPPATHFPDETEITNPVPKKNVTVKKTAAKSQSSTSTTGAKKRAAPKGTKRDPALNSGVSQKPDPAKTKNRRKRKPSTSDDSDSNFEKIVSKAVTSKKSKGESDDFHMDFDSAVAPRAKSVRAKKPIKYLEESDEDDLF
Experiment [4] shares this target. Description: Poison activity at human topoisomerase-2 alpha assessed as increase in supercoiled pRYG DNA cleavage at 100 uM after 10 min.

Each structure is given as a SMILES string. Calls of active or inactive are those of the source. The rule behind the calls is not given here.

For `CN(C)CCN1C(=O)c2cccc3cc(C#Cc4cccc(O)c4)cc(c23)C1=O`, the figures for the IC50 in the experiment on SK-BR-3, with HL-60 and in the experiment with HEL were over 30 µM, 10.2 µM and 1.2 µM, respectively. In addition, the outcome with Saccharomyces cerevisiae [1] and with Saccharomyces cerevisiae [2] was Active.
On to `C#Cc1cc2c3c(cccc3c1)C(=O)N(CCN(C)C)C2=O`, for which the values for the IC50 in the experiment with SK-BR-3, in the experiment with HL-60 and in the experiment on HEL were over 10 µM, 10 µM and 8.1 µM, respectively. Further, the outcome in the experiment with Saccharomyces cerevisiae [1] and in the experiment on Saccharomyces cerevisiae [2] was Active.
Consider `CN(C)CCN1C(=O)c2cccc3cc(C#Cc4ccccc4)cc(c23)C1=O`, for which the IC50 (usually the concentration needed to halve the response being measured) in the experiment on SK-BR-3 turned out to be 4.6 µM; in the experiment with HL-60, 4.6 µM; in the experiment on HEL, 1.4 µM. For the same compound, the “Topoisomerase 2-alpha inhibition (active/not active)” value in experiment [3] is “Active”. Besides, the result in the experiment on Saccharomyces cerevisiae [1] and with Saccharomyces cerevisiae [2] was Active.
On to `COc1cccc(C#Cc2cc3c4c(cccc4c2)C(=O)N(CCN(C)C)C3=O)c1`, for which the figures for the IC50 in the experiment with SK-BR-3, with HL-60 and in the experiment with HEL were 2 µM, 1 µM and 1 µM, respectively. Moreover, the outcome with Saccharomyces cerevisiae [1] and in the experiment on Saccharomyces cerevisiae [2] was Active.
Consider `CN(C)CCN1C(=O)c2cccc3cc(C#Cc4cccc([N+](=O)[O-])c4)cc(c23)C1=O`, for which the IC50 in the experiment on SK-BR-3 was over 10 µM; in the experiment on HL-60, 13.6 µM; with HEL it was 21.7 µM. In addition, the outcome with Saccharomyces cerevisiae [1] and with Saccharomyces cerevisiae [2] was Active.
Consider `CN(C)CCN1C(=O)c2cccc3cc(C#Cc4ccc(O)cc4)cc(c23)C1=O`, for which the values for the IC50 with SK-BR-3, in the experiment with HL-60 and with HEL were 2.1 µM, 5.7 µM and 13.1 µM, respectively. The result in the experiment with Saccharomyces cerevisiae [1] and in the experiment on Saccharomyces cerevisiae [2] was inactive.
Take `CN(C)CCN1C(=O)c2cccc3cc(N)cc(c23)C1=O` [AMONAFIDE]: the IC50 was determined as 3.4 µM in the experiment with HL-60 and 4 µM with HEL.
Regarding `COc1ccc(C#Cc2cc3c4c(cccc4c2)C(=O)N(CCN(C)C)C3=O)cc1`, the half-inhibitory concentration (IC50) came out at 2.1 µM with SK-BR-3, 1.1 µM in the experiment on HL-60 and 2 µM in the experiment on HEL. In addition, the outcome with Saccharomyces cerevisiae [1] and with Saccharomyces cerevisiae [2] was Active.
Regarding `CN(C)CCN1C(=O)c2cccc3cc(C#Cc4ccsc4)cc(c23)C1=O`, the IC50 in the experiment on SK-BR-3 was over 10 µM; in the experiment with HL-60, 5.4 µM; in the experiment on HEL, 5 µM. Moreover, the “Topoisomerase 2-alpha inhibition (active/not active)” value in experiment [3] was “Active”. Also, the result (in experiment [4]; in the experiment on Saccharomyces cerevisiae [1]; in the experiment with Saccharomyces cerevisiae [2]) was Active.
On to `COc1cc([C@@H]2c3cc4c(cc3[C@@H](O[C@@H]3O[C@@H]5CO[C@@H](C)O[C@H]5[C@H](O)[C@H]3O)[C@H]3COC(=O)[C@H]23)OCO4)cc(OC)c1O`, for which the outcome in experiment [4] was Active.
On to `CN(C)CCN1C(=O)c2cccc3cc(C#Cc4ccoc4)cc(c23)C1=O`, for which the IC50 in the experiment with SK-BR-3 stood at 9.6 µM; with HL-60 it was 3.5 µM; with HEL, 5.6 µM. In addition, the “Topoisomerase 2-alpha inhibition (active/not active)” value in experiment [3] was “Active”. The outcome in the experiment with Saccharomyces cerevisiae [1] and in the experiment with Saccharomyces cerevisiae [2] was Active.
For `CN(C)CCN1C(=O)c2cccc3cc(C#Cc4cccc(C(F)(F)F)c4)cc(c23)C1=O`, the results for the IC50 in the experiment with SK-BR-3, with HL-60 and in the experiment with HEL were 0.1 µM, 2.3 µM and 2.2 µM, respectively. In addition, in experiment [3], the “Topoisomerase 2-alpha inhibition (active/not active)” value is “inactive”. The outcome in the experiment with Saccharomyces cerevisiae [1] and in the experiment with Saccharomyces cerevisiae [2] was Active.
